Marks after values point to notes of the source that are not given here.
Tests used:
[1] = system: 5-α-reductase enzyme; experiment: Production of dihydrotestosterone (DHT) from testosterone in a cellular model, revealing 5-α-reductase activity; type: cell-based, human; conditions: 2 μM
Method: This model is a cellular model, that is more robust than models on purified enzyme.
Human fibroblasts of the dermal follicular papilla (person) were seeded into collagen-coated culture plates in the presence of a specific growth medium. After three days, they were pretreated for 24 hours with the positive reference [Finasteride (F) at 2 μM and 1 μM] and each of the algal extracts to be tested (Table 2). The fibroblasts were then stimulated with testosterone at 0.5 μM before undergoing a post-treatment for 24 hours. Each test was carried out in sextuplicate.
The viability was measured using a WST-8 reagent and the conversion of the testosterone was then evaluated by measuring the intracellular concentration of (DHT). The viability was expressed relative to that of the control without testosterone (control T0). The amount of (DHT) was standardized relative to the viability results and then related to the control condition with testosterone (0.5 μM) control (T1) in order to calculate a percentage effect, and also related to the control conditions without testosterone in order to calculate a percentage protection.

[2] = system: Human fibroblasts of the dermal follicular papilla; experiment: Viability measured using WST-8 reagent; type: cell-based; conditions: 2 μM

## CC(C)(C)NC(=O)[C@H]1CC[C@H]2[C@@H]3CC[C@H]4NC(=O)C=C[C@]4(C)[C@H]3CC[C@]12C [F, Finasteride]
[1]; DHT standardized relative to viability (WST-8 OD)
  DHT Standardized concentration (pg/ml/AU): 5.68 +/− 0.91^(a) pg/ml/AU
[1]; intracellular DHT, testosterone 0.5 μM
  DHT Concentration (pg/ml): 12.38 +/− 2.35^(a) pg/ml
[1]; related to control without testosterone (T0 = 100%, T1 = 0%)
  DHT Restoration: 46%*
[1]; relative to control with testosterone 0.5 μM (T1)
  DHT Effect: −28%*
[2]; fibroblasts stimulated with testosterone 0.5 μM, 24 h pre- and 24 h post-treatment
  WST-8 OD (AU): 2.19 +/− 0.27^(a) AU
[2]; relative to control without testosterone (T0)
  WST-8 Viability: 93%^(a)

— US11224627B2, “Method for culturing cells of Acrochaetium moniliforme red algae, method for obtaining an extract of the biomass thereof, and use of same in cosmetics” (SOCIETE D'EXPLOITATION DE PRODUITS POUR LES INDUSTRIES …, priority 2016, dated 2022)
